# Laboratory results from ChEMBL document CHEMBL3272315, “Synthesis of angiotensin II antagonists containing N- and O-methylated and other amino acid residues” (J Med Chem, 1976).
# Non-standard residues stand in square brackets, D forms with d. Residues, ends and D or L forms follow the SMILES beside them. Sar = CNCC(=O)O
# Assays:
# Felis catus = organism: Felis catus; experiment: Agonist activity at angiotensin AT2 receptor in isolated cat adrenal medulla assessed as secretory activity relative to angiotensin 2; assay type: tissue-based
# [1] = Antagonist activity at angiotensin AT2 receptor in rabbit aortic strips assessed as inhibition of angiotensin 2- myotropic mediated response; settings: Oryctolagus cuniculus; read-out: pA2 (converted)
# [2] = Antagonist activity at angiotensin AT2 receptor in isolated cat adrenal medulla; assay type: tissue-based, Felis catus
# Rattus norvegicus [3] = experiment: Induction of blood pressure in rat at 250 ng/kg/min, iv measured at 3 mins (reference value: 0.78 +/- 0.26 mmHg); assay type: functional
# Rattus norvegicus [4] = experiment: Induction of blood pressure in rat at 250 ng/kg/min, iv measured at 30 mins (reference value: 3.66 +/- 0.74 mmHg); assay type: functional
# Rattus norvegicus [5] = experiment: Induction of blood pressure in acute adrenalectomized rat at 250 ng/kg/min, iv measured at 3 mins (reference value: 0.78 +/- 0.26 mmHg); assay type: functional
# Rattus norvegicus [6] = experiment: Induction of blood pressure in acute adrenalectomized rat at 250 ng/kg/min, iv measured at 30 mins (reference value: 3.66 +/- 0.74 mmHg); assay type: functional
# Rattus norvegicus [7] = experiment: Potentiation of angiotensin 2-induced blood pressure in rat at 250 ng/kg/min, iv relative to before compound infusion; assay type: functional
# Rattus norvegicus [8] = experiment: Potentiation of angiotensin 2-induced blood pressure in acute adrenalectomized rat at 250 ng/kg/min, iv relative to before compound infusion; assay type: functional
# Rattus norvegicus [9] = experiment: Potentiation of angiotensin 2-induced of blood pressure in vagotomized and ganglion-blocked rat at 250 ng/kg/min, iv relative to before compound infusion; assay type: functional
# Rattus norvegicus [10] = organism: Rattus norvegicus; experiment: Induction of pressor in vagotomized and ganglion-blocked rat assessed as initial pressor activity up to 10 ug/ml relative to angiotensin 2; assay type: functional
# Rattus norvegicus [11] = experiment: Induction of blood pressure in vagotomized and ganglion-blocked rat at 250 ng/kg/min, iv measured at 3 mins; assay type: functional
# Rattus norvegicus [12] = experiment: Induction of blood pressure in vagotomized and ganglion-blocked rat at 250 ng/kg/min, iv measured at 10 mins; assay type: functional
# Rattus norvegicus [13] = experiment: Induction of blood pressure in vagotomized and ganglion-blocked rat at 250 ng/kg/min, iv measured at 30 mins; assay type: functional
# Rattus norvegicus [14] = experiment: Induction of blood pressure in vagotomized and ganglion-blocked rat at 6000 ng/kg/min, iv measured at 3 mins; assay type: functional
# Rattus norvegicus [15] = experiment: Induction of blood pressure in vagotomized and ganglion-blocked rat at 6000 ng/kg/min, iv measured at 10 mins; assay type: functional
# Rattus norvegicus [16] = experiment: Induction of blood pressure in vagotomized and ganglion-blocked rat at 6000 ng/kg/min, iv measured at 30 mins; assay type: functional
# Rattus norvegicus [17] = experiment: Potentiation of angiotensin 2-induced of blood pressure in vagotomized and ganglion-blocked rat at 6000 ng/kg/min, iv relative to before compound infusion; assay type: functional
# Rattus norvegicus [18] = organism: Rattus norvegicus; experiment: Induction of pressor in vagotomized and ganglion-blocked rat assessed as initial pressor activity relative to angiotensin 2; assay type: functional
# Rattus norvegicus [19] = experiment: Induction of blood pressure in acute adrenalectomized rat at 250 ng/kg/min, iv measured at 3 mins in presence of propranolol (reference value: 0.78 +/- 0.26 mmHg); assay type: functional
# Rattus norvegicus [20] = experiment: Induction of blood pressure in acute adrenalectomized rat at 250 ng/kg/min, iv measured at 30 mins in presence of propranolol (reference value: 3.66 +/- 0.74 mmHg); assay type: functional
# Rattus norvegicus [21] = experiment: Potentiation of angiotensin 2-induced blood pressure in acute adrenalectomized rat at 250 ng/kg/min, iv in presence of propranolol relative to before compound infusion; assay type: functional
# Rattus norvegicus [22] = experiment: Induction of blood pressure in sham operated rat at 250 ng/kg/min, iv measured at 3 mins (reference value: 0.78 +/- 0.26 mmHg); assay type: functional
# Rattus norvegicus [23] = experiment: Induction of blood pressure in sham operated rat at 250 ng/kg/min, iv measured at 30 mins (reference value: 3.66 +/- 0.74 mmHg); assay type: functional
# Rattus norvegicus [24] = experiment: Potentiation of angiotensin 2-induced blood pressure in sham operated rat at 250 ng/kg/min, iv relative to before compound infusion; assay type: functional
# Rattus norvegicus [25] = experiment: Induction of blood pressure in rat at 250 ng/kg/min, iv measured at 3 mins in presence of propranolol (reference value: 0.78 +/- 0.26 mmHg); assay type: functional
# Rattus norvegicus [26] = experiment: Induction of blood pressure in rat at 250 ng/kg/min, iv measured at 30 mins in presence of propranolol (reference value: 3.66 +/- 0.74 mmHg); assay type: functional
# Rattus norvegicus [27] = experiment: Induction of blood pressure in 6 days adrenalectomized rat at 250 ng/kg/min, iv measured at 3 mins (reference value: 0.78 +/- 0.26 mmHg); assay type: functional
# Rattus norvegicus [28] = experiment: Induction of blood pressure in 6 days adrenalectomized rat at 250 ng/kg/min, iv measured at 30 mins (reference value: 3.66 +/- 0.74 mmHg); assay type: functional
# Rattus norvegicus [29] = experiment: Induction of blood pressure in chronic adrenalectomized rat at 250 ng/kg/min, iv measured at 3 mins (reference value: 0.78 +/- 0.26 mmHg); assay type: functional
# Rattus norvegicus [30] = experiment: Induction of blood pressure in chronic adrenalectomized rat at 250 ng/kg/min, iv measured at 30 mins (reference value: 3.66 +/- 0.74 mmHg); assay type: functional
# Rattus norvegicus [31] = experiment: Potentiation of angiotensin 2-induced blood pressure in 6 days adrenalectomized rat at 250 ng/kg/min, iv in presence of propranolol relative to before compound infusion; assay type: functional
# Rattus norvegicus [32] = experiment: Potentiation of angiotensin 2-induced blood pressure in chronic adrenalectomized rat at 250 ng/kg/min, iv in presence of propranolol relative to before compound infusion; assay type: functional
SMILES,Activity (Felis catus) [%],pA2 [2],Kb [1] [nM],Activity (Rattus norvegicus [3]) [mmHg],Activity (Rattus norvegicus [4]) [mmHg],Activity (Rattus norvegicus [5]) [mmHg],Activity (Rattus norvegicus [6]) [mmHg],Ratio (Rattus norvegicus [7]),Ratio (Rattus norvegicus [8]),Ratio (Rattus norvegicus [9]),Activity (Rattus norvegicus [11]) [mmHg],Activity (Rattus norvegicus [12]) [mmHg],Activity (Rattus norvegicus [13]) [mmHg],Activity (Rattus norvegicus [18]) [%],other results
CC[C@H](C)[C@@H](C(=O)N[C@@H](Cc1cnc[nH]1)C(=O)N1CCC[C@H]1C(=O)N(C)[C@H](C(=O)O)[C@@H](C)CC)N(C)C(=O)[C@H](Cc1ccc(O)cc1)NC(=O)[C@@H](NC(=O)[C@H](CCCNC(=N)N)NC(=O)CNC)C(C)C,< 0.01,8,12.9,,,,,,,0.62,1,3.2,7,,Activity (Rattus norvegicus [10]): 0%; Activity (Rattus norvegicus [14]): 2.5 mmHg; Activity (Rattus norvegicus [15]): 3.16 mmHg; Activity (Rattus norvegicus [16]): 7.33 mmHg; Ratio (Rattus norvegicus [17]): 0.82
CC[C@H](C)[C@H](NC(=O)[C@@H]1CCCN1C(=O)[C@H](Cc1cnc[nH]1)NC(=O)[C@@H](NC(=O)[C@H](Cc1ccc(O)cc1)NC(=O)[C@@H](NC(=O)[C@H](CCCNC(=N)N)NC(=O)[C@H](CC(=O)O)NC)C(C)C)[C@@H](C)CC)C(=O)O,1.01,8.16,1.82,,,,,,,33.43,10.14,16.57,16.57,0.76,
CC[C@H](C)[C@H](NC(=O)[C@@H]1CCCN1C(=O)[C@H](Cc1cnc[nH]1)NC(=O)[C@@H](NC(=O)[C@H](Cc1ccc(O)cc1)N(C)C(=O)[C@@H](NC(=O)[C@H](CCCNC(=N)N)NC(=O)CNC)C(C)C)[C@@H](C)CC)C(=O)O,0.11,9.16,36.3,,,,,,,2.14,8,10,9.8,0.34,Activity (Rattus norvegicus [14]): 39.2 mmHg; Activity (Rattus norvegicus [15]): 21.6 mmHg; Activity (Rattus norvegicus [16]): 14.4 mmHg; Ratio (Rattus norvegicus [17]): 12.09
CC[C@H](C)[C@H](NC(=O)[C@H](Cc1ccc(O)cc1)NC(=O)[C@@H](NC(=O)[C@H](CCCNC(=N)N)NC(=O)CNC)C(C)C)C(=O)N[C@@H](Cc1cnc[nH]1)C(=O)N1CCC[C@H]1C(=O)N[C@@H](CO)C(=O)O (H-[Sar]RVYIHPS-OH),0.05,9.33,8.32,,,,,,,11.15,9.57,9.57,11.42,0.66,
CC[C@H](C)[C@H](NC(=O)[C@H](Cc1ccc(O)cc1)NC(=O)[C@@H](NC(=O)[C@H](CCCNC(=N)N)NC(=O)CNC)C(C)C)C(=O)N[C@@H](Cc1cnc[nH]1)C(=O)N1CCC[C@H]1C(=O)N[C@@H](CCSC)C(=O)O (H-[Sar]RVYIHPM-OH),< 0.01,9.16,2.34,,,,,,,,36.75,36.75,32.5,3.74,

# The next lines start with results.
Activity (Felis catus) [%],pA2 [2],SMILES,Kb [1] [nM],Activity (Rattus norvegicus [3]) [mmHg],Activity (Rattus norvegicus [4]) [mmHg],Activity (Rattus norvegicus [5]) [mmHg],Activity (Rattus norvegicus [6]) [mmHg],Ratio (Rattus norvegicus [7]),Ratio (Rattus norvegicus [8]),Ratio (Rattus norvegicus [9]),Activity (Rattus norvegicus [11]) [mmHg],Activity (Rattus norvegicus [12]) [mmHg],Activity (Rattus norvegicus [13]) [mmHg],Activity (Rattus norvegicus [18]) [%],other results
3,9.5,CC[C@H](C)[C@H](NC(=O)[C@@H]1CCCN1C(=O)[C@H](Cc1c[nH]cn1)NC(=O)[C@@H](NC(=O)[C@H](Cc1ccc(O)cc1)NC(=O)[C@@H](NC(=O)[C@H](CCCN=C(N)N)NC(=O)CNC)C(C)C)[C@@H](C)CC)C(=O)O,0.676,17.81,14.81,8.9,1.8,27.79,6.04,,,,,,
0,9,CC[C@H](C)[C@H](NC(=O)[C@H](Cc1ccc(O)cc1)NC(=O)[C@@H](NC(=O)[C@H](CCCN=C(N)N)NC(=O)CNC)C(C)C)C(=O)N[C@@H](Cc1c[nH]cn1)C(=O)N1CCC[C@H]1C(=O)N[C@H](C(=O)O)[C@@H](C)O (H-[Sar]RVYIHPT-OH),,9.46,9.2,7.57,4.57,,5.52,26.9,,,,,
0.1,8,CC[C@H](C)[C@H](NC(=O)[C@H](Cc1ccc(O)cc1)NC(=O)[C@@H](NC(=O)[C@H](CCCNC(=N)N)NC(=O)CNC)C(C)C)C(=O)N[C@@H](Cc1cnc[nH]1)C(=O)N1CCC[C@H]1C(=O)N(C)[C@H](C(=O)O)[C@@H](C)CC,14.1,25.1,32,24.66,30.33,2.99,2.53,2.99,25.1,36,32,1.06,Activity (Rattus norvegicus [19]): 21 mmHg; Activity (Rattus norvegicus [20]): 17.71 mmHg; Ratio (Rattus norvegicus [21]): 2.56
0.1,7,CC[C@H](C)[C@H](NC(=O)[C@H](Cc1ccc(O)cc1)NC(=O)[C@@H](NC(=O)[C@H](CCCNC(=N)N)NC(=O)CNC)C(C)C)C(=O)N[C@@H](Cc1cnc[nH]1)C(=O)N1CCC[C@H]1C(=O)N[C@H](C(=O)O)[C@@H](C)OC,,13.82,15.63,7.75,7.62,62.52,22.96,,,,,,Activity (Rattus norvegicus [22]): 19.25 mmHg; Activity (Rattus norvegicus [23]): 11 mmHg; Ratio (Rattus norvegicus [24]): 45.86; Activity (Rattus norvegicus [25]): 11.5 mmHg; Activity (Rattus norvegicus [26]): -1.25 mmHg; Activity (Rattus norvegicus [27]): 3 mmHg; Activity (Rattus norvegicus [28]): -0.4 mmHg; Activity (Rattus norvegicus [29]): 5 mmHg; Activity (Rattus norvegicus [30]): 2.25 mmHg; Ratio (Rattus norvegicus [21]): 54.16; Ratio (Rattus norvegicus [31]): 11.61; Ratio (Rattus norvegicus [32]): 12.06
0.01,9.31,CC[C@H](C)[C@H](NC(=O)[C@@H]1CCCN1C(=O)[C@H](Cc1c[nH]cn1)NC(=O)[C@H]([C@@H](C)CC)N(C)C(=O)[C@H](Cc1ccc(O)cc1)NC(=O)[C@@H](NC(=O)[C@H](CCCN=C(N)N)NC(=O)CNC)C(C)C)C(=O)O,22.9,,,,,,,3.26,15.66,23,22.8,0.46,
